Consider 21 molecules from PMC2867451 (Journal of medicinal chemistry, 2010).

The term ED50 denotes the dose at which the effect has come halfway, by size or by number of responders. What is called TD50 is the dose at which the toxic effect under study appears in half of the subjects.

Data set [1] has as its system behavioral toxicity. As to the kind of experiment: behavioral toxicity, rat. Particulars: for PI: protective index TD50/ED50; for behavioral toxicity observed: rat (po), 500 mg/kg.
Data set [2] has as its system maximal electroshock seizure (MES). As to the kind of experiment: maximal electroshock seizure. Particulars: for ED50: Mus musculus, ip, read-out: MES, ED50; for duration of action in the MES model: mice (ip) and rat (po). It counts as in vivo, mice.
The test system of data set [3] is subcutaneous Metrazol (scMet) seizure. As to the kind of experiment: subcutaneous Metrazol. It is filed as in vivo, mice. Particulars: Mus musculus, ip, read-out: scMet ED50.
The test system of data set [4] is behavioral toxicity. Particulars: rat, po; TD50/ED50; cited from earlier work.
Data set [5] relates to neurological impairment (rotorod test). To be noted: mice, ip; TD50/ED50; cited from earlier work.
A short description of data set [6]: rotorod test for neurological impairment, mice. It counts as in vivo. To be noted: male, Carworth Farms No. 1, mouse, in vivo, ip. A general note: In the rotarod test animals must keep their balance on a rotating rod.
Data set [7] concerns psychomotor 6 Hz (32 mA) seizure. To be noted: mice, ip; cited from earlier work.
Data set [8] relates to hippocampal kindled seizure. Particulars: rat; similar screening; cited from earlier work.
In data set [9] the test system is formalin-induced pain response. Particulars: 16 mg/kg; cited from earlier work.
The subject of data set [10] is maximal electroshock seizure (MES). Particulars: mice, ip; cited from earlier work.
Data set [11] has the same test system. To be noted: rat, po; cited from earlier work.
For data set [12] the test system is unchanged. In words: maximal electroshock seizure. It is filed as in vivo, rat. Particulars: for MES, ED50: rat, po. (Protection in the maximal electroshock model is a classic sign of anticonvulsant action.)
A short description of a further data set: behavioral toxicity, rat. Particulars: male, Sprague-Dawley, rat, in vivo, po.
The test system of data set [13] is neurological impairment (rotorod test). In words: rotorod test for neurological impairment, mice. It counts as in vivo. Particulars: mice, ip; rotorod test.
The subject of data set [14] is formalin-induced pain response. As to the kind of experiment: formalin test, biphasic pain model, mice. It is filed as in vivo. Particulars: 15 mg/kg; mouse, ip.

Where two headings read alike, the source gives them in different places.

Take `COC[C@@H](NC(C)=O)C(=O)NCc1ccc(OCc2ccc(F)cc2)cc1` [(R)-22, (R)-N-4′-((4″-Fluoro)benzyloxy)benzyl 2-Acetamido-3-methoxypropionamide]: the PI with behavioral toxicity [1] (rat, po) is recorded as over 86.

With `COC[C@@H](NC(C)=O)C(=O)NCc1ccc(OCc2ccccc2F)cc1` [(R)-21, (R)-N-4′-((2″-Fluoro)benzyloxy)benzyl 2-Acetamido-3-methoxypropionamide], the PI in the data set with behavioral toxicity [1] (rat, po) is over 45.

In the case of `NC(=O)C(NCc1ccc(OCc2cccc(F)c2)cc1)c1ccco1.O=C(O)C(=O)O` (racemic) [(R,S)-75, 2-(4′-((3″-Fluoro)benzyloxy)benzyl)amino-2-(furan-2-yl)acetamide Oxalate], the ED50 was 10 to 30 mg/kg in data set [2] and 100 to 300 mg/kg in [3].

On to `COCC(NCc1ccc(OCc2cccc(F)c2)cc1)C(N)=O` (racemic) [(R,S)-74, 2-(4′-((3″-Fluoro)benzyloxy)benzyl)amino-3-methoxypropionamide], for which, in data set [2], the ED50 was in the range of 30 to 100 mg/kg.

For the molecule `CCCC(CCC)C(=O)[O-].[Na+]` [valproate], the PI with behavioral toxicity [4] is on record as 0.6; in data set [5] it was 1.6.

In data set [6], `CC(=O)N[C@@H](C)C(=O)NCc1ccc(OCc2cccc(F)c2)cc1` [(S)-6, (S)-N-4′-((3″-Fluoro)benzyloxy)benzyl 2-Acetamidopropionamide] yielded a TD50 of over 300 mg/kg.

For `CC(=O)NCC(=O)NCc1ccc(OCc2cccc(F)c2)cc1` [compound 5, N-4′-((3″-Fluoro)benzyloxy)benzyl 2-Acetamidoacetamide], the behavioral toxicity observed entry in the data set with behavioral toxicity [1] is recorded as “no apparent neurological toxicity”. Also, the PI in the data set with behavioral toxicity [1] (rat, po) was over 16.

In the data set with behavioral toxicity [1] (rat, po), `COC[C@@H](NC(C)=O)C(=O)NCc1ccc(COc2cccc(F)c2)cc1` [(R)-16, (R)-N-4′-(((3″-Fluoro)phenoxy)methyl)benzyl 2-Acetamido-3-methoxypropionamide] yielded a PI of over 21.

Consider `COC[C@@H](NC(C)=O)C(=O)NCc1ccccc1` [(R)-3, Lacosamide], for which the “6 Hz (32 mA) ED50” value in data set [7] was 10 mg/kg. Moreover, the “hippocampal kindled seizure test ED50” value in [8] is given as 14 mg/kg. In addition, in data set [9], the “reduction in pain, formalin model” value is “comparable reduction in pain was observed only in the late phase”.

Take `CC(=O)N[C@H](C)C(=O)NCc1ccc(OCc2cccc(F)c2)cc1` [(R)-6, (R)-N-4′-((3″-Fluoro)benzyloxy)benzyl 2-Acetamido-propionamide]: the “duration of action in the MES model” value in [2] is reported as “extended duration of action”. In addition, the PI in the data set on behavioral toxicity [1] (rat, po) is over 16.

`COC[C@@H](NC(C)=O)C(=O)NCc1ccc(Oc2cccc(F)c2)cc1` [(R)-12, (R)-N-4′-((3″-Fluoro)phenoxy)benzyl 2-N-Acetamido-3-methoxypropionamide]: in data set [2], the ED50 was under 30 mg/kg.

In the case of `C[C@@H](NCc1ccc(OCc2cccc(F)c2)cc1)C(N)=O` [(R)-4], the “MES, ED50” value in [10] is given as 7.2 (5.9–8.9) mg/kg.

`COC[C@@H](NC(C)=O)C(=O)NCc1ccc(-c2ccccc2)cc1` [(R)-73, (R)-N-(biphenyl-4-yl)methyl 2-acetamido-3-methoxypropionamide]: in [11], the “MES, ED50” value is given as 2.0 mg/kg.

For the molecule `COC[C@@H](NC(C)=O)C(=O)NCc1ccc(C#Cc2cccc(F)c2)cc1` [(R)-15, (R)-N-4′-(((3″-Fluoro)phenyl)ethynyl)benzyl 2-Acetamido-3-methoxypropionamide], the “duration of action in the MES model” value in [2] was “extended duration of action”. Further, the “duration of seizure protection” value in data set [12] (MES test, rat (po)) is listed as “extended for the entire 4 h testing period”. Further, the “MES, ED50” value in data set [12] was in the range of 1.4 to 2.4 mg/kg.

Take `COC[C@@H](NC(C)=O)C(=O)NCc1ccc(OCc2ccccc2)cc1` [(R)-20, (R)-N-4′-(Benzyloxy)benzyl 2-N-Acetamido-3-methoxypropionamide]: the median effective dose (ED50) in [2] is under 3 mg/kg. The TD50 in “behavioral toxicity, rat” is over 10 mg/kg.

Turning to `C[C@H](NCc1ccc(OCc2cccc(F)c2)cc1)C(N)=O` [(S)-4, Safinamide], in data set [10], the “MES, ED50” value is 8.0 (7.0–9.1) mg/kg.

On to `CC(=O)NC(C(=O)NCc1ccc(OCc2cccc(F)c2)cc1)c1ccccn1` (racemic) [(R,S)-9, N-4′-((3″-Fluoro)benzyloxy)benzyl 2-Acetamido-2-(pyridin-2-yl)acetamide], for which the “Tox, TD50” value in the data set on behavioral toxicity [1] (rat, po, behavioral toxicity) is >30 [4] mg/kg. Besides, in data set [12], the “MES, ED50” value was >30 [4] mg/kg.

Take `COC[C@H](NC(C)=O)C(=O)NCc1ccc(OCc2cccc(F)c2)cc1` [(S)-10, (S)-N-4′-((3″-Fluoro)benzyloxy)benzyl 2-Acetamido-3-methoxypropionamide]: in data set [13], the “Tox, TD50” value is on record as over 300 mg/kg. For the same molecule, the ED50 in data set [2] was over 300 mg/kg.

For `O=C1NC(=O)C(c2ccccc2)(c2ccccc2)N1` [phenytoin], the PI in the data set on behavioral toxicity [4] is over 100.

Turning to `COC[C@@H](NC(C)=O)C(=O)NCc1ccc(OCc2cccc(F)c2)cc1` [(R)-10, (R)-N-4′-((3″-Fluoro)benzyloxy)benzyl 2-Acetamido-3-methoxypropionamide], the “pain responses in the acute and the chronic inflammatory phases” value in [14] was “reduced pain responses”. The PI in the data set with behavioral toxicity [1] (rat, po) is over 36.

With `COC[C@@H](NC(C)=O)C(=O)NCc1ccc(-c2cccc(F)c2)cc1` [(R)-11, (R)-N-(3″-Fluorobiphenyl-4-yl)methyl 2-Acetamido-3-methoxypropionamide], the behavioral toxicity observed result with behavioral toxicity [1] is listed as “no evidence of behavioral toxicity”. For the same molecule, the “MES, ED50” value in data set [12] is 1.4 to 2.4 mg/kg.
